One assay relates to WM-266-4 cells. Put plainly: Cell Proliferation Inhibitory Test. The settings on record: Homo sapiens, 72 h, cultured three days with test compound, MTT, read-out: 50% cell proliferation inhibitory activity (GI50 value). In kind it is cell-based. In short, it runs like this: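 Cells cultured overnight, then exposed to serially diluted compound for three days; cell amount read by MTT. GI50 solved from 100×[(T−T0)/(C−T0)]=50, with T0 the value at time of compound addition and C the untreated three-day control.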

In the next assay the target is T1, human mTOR (Homo sapiens, UniProt P42345).
T1 construct: the portion corresponding to 1362-2549aa at the C terminus of human mTOR; made in house
T1 sequence (P42345 1362-2549): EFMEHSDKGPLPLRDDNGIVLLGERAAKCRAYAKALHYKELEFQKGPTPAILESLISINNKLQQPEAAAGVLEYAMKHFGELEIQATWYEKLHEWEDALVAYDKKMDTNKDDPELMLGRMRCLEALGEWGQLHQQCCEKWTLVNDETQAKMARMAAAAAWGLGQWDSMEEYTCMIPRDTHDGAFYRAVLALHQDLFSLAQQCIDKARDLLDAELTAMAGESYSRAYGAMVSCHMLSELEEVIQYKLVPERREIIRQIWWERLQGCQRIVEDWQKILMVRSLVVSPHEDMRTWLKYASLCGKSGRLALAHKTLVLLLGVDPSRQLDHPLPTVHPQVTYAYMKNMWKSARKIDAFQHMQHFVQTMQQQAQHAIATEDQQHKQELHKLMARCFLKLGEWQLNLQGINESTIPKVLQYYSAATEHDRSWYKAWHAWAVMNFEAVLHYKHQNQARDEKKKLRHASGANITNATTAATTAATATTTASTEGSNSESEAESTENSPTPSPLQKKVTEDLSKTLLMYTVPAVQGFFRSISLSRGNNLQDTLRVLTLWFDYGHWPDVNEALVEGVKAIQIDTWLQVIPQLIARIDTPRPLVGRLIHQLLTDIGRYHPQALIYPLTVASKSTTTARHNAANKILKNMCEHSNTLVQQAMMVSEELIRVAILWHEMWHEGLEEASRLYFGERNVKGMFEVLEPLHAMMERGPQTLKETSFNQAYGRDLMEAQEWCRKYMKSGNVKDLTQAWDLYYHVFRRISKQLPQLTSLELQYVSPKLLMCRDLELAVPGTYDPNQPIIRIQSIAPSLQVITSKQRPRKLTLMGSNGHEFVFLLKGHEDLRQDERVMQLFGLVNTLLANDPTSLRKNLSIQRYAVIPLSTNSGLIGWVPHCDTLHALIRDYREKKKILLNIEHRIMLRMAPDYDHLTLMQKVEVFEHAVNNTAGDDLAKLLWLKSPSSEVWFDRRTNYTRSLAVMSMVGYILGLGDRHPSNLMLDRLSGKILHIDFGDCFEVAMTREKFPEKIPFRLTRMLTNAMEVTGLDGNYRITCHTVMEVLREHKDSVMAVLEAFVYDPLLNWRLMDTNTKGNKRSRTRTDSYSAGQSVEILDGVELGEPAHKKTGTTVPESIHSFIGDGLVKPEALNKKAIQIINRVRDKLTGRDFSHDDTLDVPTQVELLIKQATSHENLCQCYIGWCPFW
Briefly: mTOR Kinase Activity Inhibition Test. In kind it is biochemical. Particulars: His-tagged mTOR (1362C), biotinylated peptide substrate, ATP, 3 hours at room temperature, fluorescence resonance energy transfer 665 nm/620 nm; read-out: IC50 value of mTOR enzyme inhibitory activity. The procedure, abridged:
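Purified His-tagged human mTOR (1362–2549aa, from HEK293) was used with biotinylated peptide (8 μg/mL in enzyme solution) in HEPES pH 7.5 with 20 mM MnCl2. Compounds were diluted in 20 μM ATP solution, and the reaction ran 3 h at RT. Phospho-S6K(Thr389) HTRF was read as the 665/620 nm ratio, and IC50 came from % inhibition versus controls.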

As a reminder, the IC50 is the concentration that inhibits the measured activity by half. In the case of `O=c1[nH]c2ncc(-c3cnc4[nH]cc(Cl)c4c3)cc2n1CC1CCOCC1` [Example 35, 6-(3-Chloro-1H-pyrrolo[2,3-b]pyridin-5-yl)-1-(tetrahydro-2H-pyran-4-ylmethyl)-1,3-dihydro-2H-imidazo[4,5-b]pyridin-2-one], the GI50 in the assay on WM-266-4 cells was less than 3000 nM. Besides, the IC50 on human mTOR was less than 50 nM.

For `Cc1c(-c2cnc3[nH]c(=O)n(CC4CCOCC4)c3c2)cnc2[nH]ccc12` [Example 36, 6-(4-Methyl-1H-pyrrolo[2,3-b]pyridin-5-yl)-1-(tetrahydro-2H-pyran-4-ylmethyl)-1,3-dihydro-2H-imidazo[4,5-b]pyridin-2-one], in the assay on WM-266-4 cells, the GI50 is less than 3000 nM. For the same molecule, on human mTOR, the IC50 is less than 50 nM.

With `Cc1c[nH]c2ncc(-c3cnc4[nH]c(=O)n(CC5CCOCC5)c4c3)cc12` [Example 37, 6-(3-Methyl-1H-pyrrolo[2,3-b]pyridin-5-yl)-1-(tetrahydro-2H-pyran-4ylmethyl)-1,3-dihydro-2H-imidazo[4,5-b]pyridin-2-one], the GI50 with WM-266-4 cells is less than 3000 nM. Besides, the IC50 at human mTOR is less than 50 nM.

As to `O=c1[nH]c2ncc(-c3cnc4[nH]ccc4c3)cc2n1CC1COCCO1` (stereo not drawn) [Example 38, 1-(1,4-Dioxan-2-ylmethyl)-6-(1H-pyrrolo[2,3-b]pyridin-5-yl)-1,3-dihydro-2H-imidazo[4,5-b]pyridin-2-one], the GI50 with WM-266-4 cells is less than 3000 nM. For the same molecule, the IC50 on human mTOR is less than 50 nM.

In the case of `O=c1[nH]c2ncc(-c3cnc4[nH]ccc4c3)cc2n1C[C@@H]1COCCO1` [Example 39, 1-[(2R)-1,4-Dioxan-2-ylmethyl]-6-(1H-pyrrolo[2,3-b]pyridin-5-yl)-1,3-dihydro-2H-imidazo[4,5-b]pyridin-2-one], the GI50 in the assay on WM-266-4 cells was less than 3000 nM. Further, the IC50 at human mTOR is less than 50 nM.

Regarding `O=c1[nH]c2ncc(-c3cnc4[nH]ccc4c3)cc2n1C[C@H]1COCCO1` [Example 40, 1-[(2S)-1,4-Dioxan-2-ylmethyl]-6-(1H-pyrrolo[2,3-b]pyridin-5-yl)-1,3-dihydro-2H-imidazo[4,5-b]pyridin-2-one], in the assay with WM-266-4 cells, the GI50 is less than 3000 nM. In addition, the IC50 at human mTOR is less than 50 nM.

As to `O=c1[nH]c2ncc(-c3cnc4[nH]cc(Cl)c4c3)cc2n1C[C@H]1COCCO1` [Example 41, 6-(3-Chloro-1H-pyrrolo[2,3-b]pyridin-5-yl)-1-[(2S)-1,4-dioxan-2-ylmethyl]-1,3-dihydro-imidazo[4,5-b]pyridin-2-one], the GI50 with WM-266-4 cells was less than 3000 nM. On human mTOR, the IC50 was less than 50 nM.

Take `Cc1c(-c2cnc3[nH]c(=O)n(C[C@H]4COCCO4)c3c2)cnc2[nH]ccc12` [Example 42, 1-[(2S)-1,4-Dioxan-2-ylmethyl]-6-(4-methyl-1H-pyrrolo[2,3-b]pyridin-5-yl)-1,3-dihydro-imidazo[4,5-b]pyridin-2-one]: the GI50 in the assay on WM-266-4 cells is less than 3000 nM. The IC50 at human mTOR was less than 50 nM.

In the case of `Cc1c[nH]c2ncc(-c3cnc4[nH]c(=O)n(C[C@H]5COCCO5)c4c3)cc12` [Example 43, 1-[(2S)-1,4-Dioxan-2-ylmethyl]-6-(3-methyl-1H-pyrrolo[2,3-b]pyridin-5-yl)-1,3-dihydro-imidazo[4,5-b]pyridin-2-one], the GI50 in the assay on WM-266-4 cells was less than 3000 nM. In addition, the IC50 at human mTOR is less than 50 nM.

Take `Cc1nc2[nH]c(=O)n(C[C@H]3COCCO3)c2cc1-c1cnc2[nH]ccc2c1` [Example 44, 1-[(2S)-1,4-Dioxan-2-ylmethyl]-5-methyl-6-(1H-pyrrolo[2,3-b]pyridin-5-yl)-1,3-dihydro-imidazo[4,5-b]pyridin-2-one]: in the assay with WM-266-4 cells, the GI50 was less than 3000 nM. Also, the IC50 at human mTOR is less than 50 nM.

Take `Cc1nc2[nH]c(=O)n(C[C@H]3COCCO3)c2cc1-c1cnc2[nH]ccc2c1C` [Example 45, 1-[(2S)-1,4-Dioxan-2-ylmethyl]-5-methyl-6-(4-methyl-1H-pyrrolo[2,3-b]pyridin-5-yl)-1,3-dihydro-imidazo[4,5-b]pyridin-2-one]: in the assay with WM-266-4 cells, the GI50 was less than 3000 nM. In addition, the IC50 at human mTOR is less than 50 nM.

As for `Cc1nc2[nH]c(=O)n(C[C@H]3COCCO3)c2cc1-c1cnc2[nH]cc(Cl)c2c1` [Example 46, 6-(3-Chloro-1H-pyrrolo[2,3-b]pyridin-5-yl)-1-[(2S)-1,4-dioxan-2-ylmethyl]-5-methyl-1,3-dihydro-imidazo[4,5-b]pyridin-2-one], the GI50 with WM-266-4 cells is less than 3000 nM. In addition, at human mTOR, the IC50 was less than 50 nM.

As to `Cc1nc2[nH]c(=O)n(C[C@H]3COCCO3)c2cc1-c1cnc2[nH]cc(C)c2c1` [Example 47, 1-[(2S)-1,4-Dioxan-2-ylmethyl]-5-methyl-6-(3-methyl-1H-pyrrolo[2,3-b]pyridin-5-yl)-1,3-dihydro-imidazo[4,5-b]pyridin-2-one], the GI50 in the assay on WM-266-4 cells is less than 3000 nM. At human mTOR, the 50% inhibitory concentration (IC50) is less than 50 nM.

`O=c1[nH]c2ncc(-c3cnc4[nH]ccc4c3)cc2n1CCC1=CCOCC1` [Example 48, 1-[2-(3,6-Dihydro-2H-pyran-4-yl)ethyl]-6-(1H-pyrrolo[2,3-b]pyridin-5-yl)-1,3-dihydro-2H-imidazo[4,5-b]pyridin-2-one]: the GI50 with WM-266-4 cells is less than 3000 nM. Further, on human mTOR, the IC50 was less than 50 nM.

In the case of `O=c1[nH]c2ncc(-c3ccc4[nH]ccc4c3)cc2n1CCC1=CCOCC1` [Example 49, 1-[2-(3,6-Dihydro-2H-pyran-4-yl)ethyl]-6-(1H-indol-5-yl)-1,3-dihydro-2H-imidazo[4,5-b]pyridin-2-one], in the assay with WM-266-4 cells, the GI50 is less than 3000 nM. Also, the IC50 on human mTOR is less than 50 nM.

Regarding `CC(Cn1c(=O)[nH]c2ncc(-c3cnc4[nH]ccc4c3)cc21)C1CCOCC1` (stereo not drawn) [Example 50, 6-(1H-Pyrrolo[2,3-b]pyridin-5-yl)-1-[2-(tetrahydro-2H-pyran-4-yl)propyl]-1,3-dihydro-2H-imidazo[4,5-b]pyridin-2-one], the GI50 in the assay with WM-266-4 cells is less than 3000 nM. For the same molecule, the IC50 at human mTOR was less than 50 nM.

As for `O=c1[nH]c2ncc(-c3cnc4[nH]ccc4c3)cc2n1CC(F)C1CCOCC1` (stereo not drawn) [Example 51, 1-[2-Fluoro-2-(tetrahydro-2H-pyran-4-yl)ethyl]-6-(1H-pyrrolo[2,3-b]pyridin-5-yl)-1,3-dihydro-2H-imidazo[4,5-b]pyridin-2-one], the GI50 in the assay on WM-266-4 cells is less than 3000 nM. For the same molecule, the IC50 on human mTOR is less than 50 nM.

As for `C[C@@H]1CN(CCn2c(=O)[nH]c3ncc(-c4ccc5[nH]ccc5c4)cc32)C[C@H](C)O1` [Example 52, 1-{2-[cis-2,6-Dimethylmorpholin-4-yl]ethyl}-6-(1H-indol-5-yl)-1,3-dihydro-2H-imidazo[4,5-b]pyridin-2-one], the GI50 in the assay on WM-266-4 cells was less than 3000 nM. Further, the IC50 at human mTOR was less than 50 nM.

For `C[C@@H]1CN(CCn2c(=O)[nH]c3ncc(-c4cnc5[nH]ccc5c4)cc32)C[C@H](C)O1` [Example 53, 1-{2-[cis-2,6-Dimethylmorpholin-4-yl]ethyl}-6-(1H-pyrrolo[2,3-b]pyridin-5-yl)-1,3-dihydro-2H-imidazo[4,5-b]pyridin-2-one], the GI50 in the assay on WM-266-4 cells was less than 3000 nM. Also, the IC50 on human mTOR was less than 50 nM.

`C[C@H]1COCCN1CCn1c(=O)[nH]c2ncc(-c3cnc4[nH]ccc4c3)cc21` [Example 54, 1-{2-[(35)-3-Methylmorpholin-4-yl]ethyl}-6-(1H-pyrrolo[2,3-b]pyridin-5-yl)-1,3-dihydro-2H-imidazo[4,5-b]pyridin-2-one]: in the assay on WM-266-4 cells, the GI50 was less than 3000 nM. Besides, the IC50 on human mTOR is less than 50 nM.

As to `O=c1[nH]c2ncc(-c3cnc4[nH]ccc4c3)cc2n1CCN1CCOCC1` [Example 55, 1-(2-Morpholin-4-ylethyl)-6-(1H-pyrrolo[2,3-b]pyridin-5-yl)-1,3-dihydro-2H-imidazo[4,5-b]pyridin-2-one], in the assay with WM-266-4 cells, the GI50 is less than 3000 nM. On human mTOR, the IC50 is less than 50 nM.

As to `CN1CCC(Cn2c(=O)[nH]c3ncc(-c4cnc5[nH]ccc5c4)cc32)CC1` [Example 56, 1-[(1-Methylpiperidin-4-yl)methyl]-6-(1H-pyrrolo[2,3-b]pyridin-5-yl)-1,3-dihydro-2H-imidazo[4,5-b]pyridin-2-one], the GI50 with WM-266-4 cells was 3000 to 25000 nM. In addition, on human mTOR, the IC50 was 100 to 5000 nM.

As for `O=c1[nH]c2ncc(-c3cnc4[nH]ccc4c3)cc2n1CCN1CCNCC1` [Example 57, 1-[2-piperazin-1-ylethyl]-6-(1H-pyrrolo[2,3-b]pyridin-5-yl)-1,3-dihydro-2H-imidazo[4,5-b]pyridin-2-one], the GI50 in the assay with WM-266-4 cells was in the range of 3000 to 25000 nM. Further, the IC50 on human mTOR lay within 50 to 100 nM.

`CN1CCN(CCn2c(=O)[nH]c3ncc(-c4cnc5[nH]ccc5c4)cc32)CC1` [Example 58, 1-[2-(4-Methylpiperazin-1-yl)ethyl]-6-(1H-pyrrolo[2,3-b]pyridin-5-yl)-1,3-dihydro-2H-imidazo[4,5-b]pyridin-2-one]: the GI50 in the assay on WM-266-4 cells is less than 3000 nM. The IC50 at human mTOR is less than 50 nM.

Take `CC(=O)N1CCN(CCn2c(=O)[nH]c3ncc(-c4cnc5[nH]ccc5c4)cc32)CC1` [Example 59, 1-[2-(4-Acetylpiperazin-1-yl)ethyl]-6-(1H-pyrrolo[2,3-b]pyridin-5-yl)-1,3-dihydro-2H-imidazo[4,5-b]pyridin-2-one]: the GI50 in the assay with WM-266-4 cells is 3000 to 25000 nM. The IC50 at human mTOR is less than 50 nM.

`CS(=O)(=O)N1CCN(CCn2c(=O)[nH]c3ncc(-c4cnc5[nH]ccc5c4)cc32)CC1` [Example 60, 1-{2-[4-(Methylsulfonyl)piperazin-1-yl]ethyl}-6-(1H-pyrrolo[2,3-b]pyridin-5-yl)-1,3-dihydro-2H-imidazo[4,5-b]pyridin-2-one]: the GI50 with WM-266-4 cells was less than 3000 nM. Further, the IC50 at human mTOR is less than 50 nM.

`COC1(Cn2c(=O)[nH]c3ncc(-c4cnc5[nH]ccc5c4)cc32)CCOCC1` [Example 68, 1-[(4-Methoxytetrahydro-2H-pyran-4-yl)methyl]-6-(1H-pyrrolo[2,3-b]pyridin-5-yl)-1,3-dihydro-2H-imidazo[4,5-b]pyridin-2-one]: the GI50 in the assay with WM-266-4 cells is less than 3000 nM. On human mTOR, the IC50 was less than 50 nM.

Source of the values: patent publication US8436012B2, “Imidazopyridin-2-one derivatives” (Daiichi Sankyo Company, Limited, priority 2008, dated 2013).
